Experiments:
[1] = tested on: 22 human preclinical TNBC cell line models; assay: WST assay in TNBC cell lines; assay type: cell-based; settings: 22 TNBC cell lines, read-out: IC50, WST assays
From the text: FIGS. 34A-C: Dose response curve of ERX-41 in multiple TNBC. cell lines using WST-1 assays (FIG. 34A) and CellTiter-Glo assays (FIG. 34B). […] Quantification of the number of dead cells over time seen with live cell imaging in MDAMB-231 and HMEC cells is shown.
To evaluate the generalizability of the inventors' findings, they evaluated ERX-41 in a large number of TNBC and ERa-positive cell lines.

[2] = tested on: MDA-MB-231 TNBC xenografts; assay: MDA-MB-231 TNBC xenografts; assay type: in vivo, mice; settings: oral 10 mg/kg/day
Experimental: FIGS. 5A-5C show the effect of TK41 on triple negative breast cancer xenograft tumors. MDA-MB-231 (TNBC; n=10) xenografts were established in nude mice and treated with either vehicle (circle markers) or 10 mg/kg/day TK41 (square markers) administered as an oral gavage in Captisol®. Comparison of mice body weights is shown in bar graphs (FIG. 5A). Photographs of individual tumors at necropsy supports the effect of TK41 on TNBC. *p<0.05; **** p<0.001.
FIGS. 35A-P: ERX-41 is potent against TNBC in vivo. (FIG. 35A) Following establishment of subcutaneous MDA-MB-231 xenograft tumors (200 mm^3), 10 mg/kg single dose ERX-41 was administered either by oral or intraperitoneal route. The tumor was harvested 0, 0, 5, 1, 5, 3, 6 and 24 h after drug administration and the drug levels assayed by LC-MS/MS and graphed. (FIGS. 35B-E) Following establishment of MDA-MB-231 xenografts in mammary fat pad in vivo (100 mm^3 size), daily administration of 10 mg/kg ERX-41 or vehicle control (N=8 each group) was initiated. Tumor volumes were measured using digital calipers and graphed (FIG. 35B). Tumor weights (FIG. 35C), body weights (FIG. 35D) and extirpated tumors (FIG. 35E) at end of study are also shown. […] Tumor volumes were measured using digital calipers and graphed (FIG. 35F) along with tumor weights (FIG. 35G) and body weights (FIG. 35H). […]

[3] = Tolerability of ERX-41 in mice; assay type: in vivo; settings: daily oral or intraperitoneal, up to 200 mg/kg
Experimental: Additionally, ERX-41 was detectable within 1.5 h in established subcutaneous MDA-MB-231 xenograft tumors after oral or intraperitoneal administration (FIG. 35A). […] ERX-41 decreased tumor growth, as shown by extirpated tumor sizes at the end of study (FIG. 35C and FIG. 35E). […] The inventors validated the activity of ERX-41 in four distinct TNBC PDXs established in the mammary fat pad (FIGS. 35I-P).

With `CC(C)COc1cc(C(=O)Nc2ccc(C(=O)N[C@H]3CC[C@H](C)CC3)cc2OCC(C)C)ccc1NC(=O)c1ccc([N+](=O)[O-])c(OCCO)c1` [TK41] the IC50 [1] was under 500 nM, the “growth of MDA-MB-231 xenografts” value [2] was “significantly decreased the growth” and the mouse body weights [2] was “no alterations in mouse body weights”. The tolerability [3] was “well tolerated”.

— patent US12275685B2, “Oligo-benzamide analogs and their use in cancer treatment” (Board of Regents, The University of Texas System, priority 2018, dated 2025)
